The values that follow come from US20130053400A1, “OLIGOMER-ANTIHISTAMINE CONJUGATES” (priority 2007, published 2013).

The structures appear in SMILES notation. “And” between values parts separate entries of the source, which are not always exact repeats. Identical values can stand only once. Like-named read-outs stand apart in the source and are kept apart here.

The target in series [1] is T1, cloned hERG channels stably expressed in HEK cells (Homo sapiens, UniProt Q12809).
The nature of series [2]: Pharmacokinetics and oral bioavailability in rats. The series is classed as in vivo. As to conditions: rat, plasma; for Cmax: read-out: Cmax; for half-life: read-out: T ½ (converted). The method, then:
For oral doses, 5 mg/kg if DPH-equivalent were used. […] Animals were dosed in triplicate by bolus injection to the femoral vein (IV) or oral gavage (PO), and whole blood was collected from the carotid artery from all animals at the appropriate time points for preparation of plasma samples. Quantitation of test article in plasma was performed by LC-MS/MS.

Series [3] concerns the target T1, cloned hERG channels stably expressed in HEK cells. The series is described as follows: hERG current inhibition, electrophysiology.
In series [4] the test system is histamine-induced wheal and flare. The series is described as follows: Wheal and flare further study, intravenous infusion. The format is in vivo, rats. The following applies: IV infusion, rats. As for the experimental part: Briefly, rats received a continuous infusion via the jugular vein catheter for 60 minutes. […] Sixty minutes after the start of the infusion period, the rats were given four (4) interdermal (ID) injections of histamine ([…] in saline; dose 50 μL at 10 μg/rat). […] Twenty minutes after the histamine injections a caliper (Fowler Sylvac Ultra-Cal Mark III) was used to measure the wheal and flare (the diameter of the blue area). Two measurements of the diameter of the blue area at the site of histamine injection were made at 90 degrees from one another. […] Blood samples collected via cardiac puncture were used for diphenhydramine quantitation. The blood samples were placed in vacutainer tubes containing K2 EDTA. The rats were exsanguinated and the brain was rinsed in ice cold saline, wrapped in foil and frozen. The brain and the plasma samples were analyzed for drug content.

The target of series [5] is human recombinant H1 histamine receptors (Homo sapiens, UniProt P35367). The series is described as follows: biochemical. As for the experimental part:
(Caliper Life Sciences, Hopkinton, Mass.). […] This study was performed using duplicate samples per data point (n=2).

Series [6] is described as follows: Blood-brain barrier penetration, brain:plasma ratio after tail vein injection. The method, then:
The four compounds were tested following intravenous injection to the tail vein in rats.
After ensuring a single rat remained viable following a test dose, the rats (4 per condition) were dosed by tail vein injection and were sacrificed one hour later. Blood was collected by cardiac puncture, and brain tissue was collected. Plasma was prepared and brain tissue homogenized to enable quantitation of drug content by LC-MS/MS.
Concentrations of each compound were determined and brain:plasma ratios calculated accordingly.

A short description of the next series: in vitro. As to conditions: human, hepatocytes.
In another series the target is Histamine (H1) (Homo sapiens, UniProt P35367). The series is described as follows: Histamine (H1) Binding Activity (Table I).
Sequence of Histamine (H1) (P35367 whole entry): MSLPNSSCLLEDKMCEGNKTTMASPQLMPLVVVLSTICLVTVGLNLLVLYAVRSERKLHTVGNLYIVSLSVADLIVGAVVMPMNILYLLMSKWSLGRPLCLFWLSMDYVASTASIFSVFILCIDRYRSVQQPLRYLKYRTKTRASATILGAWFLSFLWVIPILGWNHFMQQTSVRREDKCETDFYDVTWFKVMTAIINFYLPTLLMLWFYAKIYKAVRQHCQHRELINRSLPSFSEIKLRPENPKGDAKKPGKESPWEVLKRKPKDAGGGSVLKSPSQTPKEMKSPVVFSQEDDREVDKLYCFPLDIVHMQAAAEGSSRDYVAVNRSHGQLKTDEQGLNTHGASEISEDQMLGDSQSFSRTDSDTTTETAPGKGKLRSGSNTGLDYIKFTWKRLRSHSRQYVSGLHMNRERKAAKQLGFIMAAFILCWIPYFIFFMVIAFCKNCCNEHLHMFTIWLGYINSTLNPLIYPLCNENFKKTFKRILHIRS
For another series, the system named is guinea pig hearts. The series is described as follows: In vitro safety pharmacology, guinea pig hearts. The following applies: rat and guinea pig preparations responded similarly.

Sequence of human recombinant H1 histamine receptors (P35367 whole entry): as above
T1 sequence (Q12809 whole entry): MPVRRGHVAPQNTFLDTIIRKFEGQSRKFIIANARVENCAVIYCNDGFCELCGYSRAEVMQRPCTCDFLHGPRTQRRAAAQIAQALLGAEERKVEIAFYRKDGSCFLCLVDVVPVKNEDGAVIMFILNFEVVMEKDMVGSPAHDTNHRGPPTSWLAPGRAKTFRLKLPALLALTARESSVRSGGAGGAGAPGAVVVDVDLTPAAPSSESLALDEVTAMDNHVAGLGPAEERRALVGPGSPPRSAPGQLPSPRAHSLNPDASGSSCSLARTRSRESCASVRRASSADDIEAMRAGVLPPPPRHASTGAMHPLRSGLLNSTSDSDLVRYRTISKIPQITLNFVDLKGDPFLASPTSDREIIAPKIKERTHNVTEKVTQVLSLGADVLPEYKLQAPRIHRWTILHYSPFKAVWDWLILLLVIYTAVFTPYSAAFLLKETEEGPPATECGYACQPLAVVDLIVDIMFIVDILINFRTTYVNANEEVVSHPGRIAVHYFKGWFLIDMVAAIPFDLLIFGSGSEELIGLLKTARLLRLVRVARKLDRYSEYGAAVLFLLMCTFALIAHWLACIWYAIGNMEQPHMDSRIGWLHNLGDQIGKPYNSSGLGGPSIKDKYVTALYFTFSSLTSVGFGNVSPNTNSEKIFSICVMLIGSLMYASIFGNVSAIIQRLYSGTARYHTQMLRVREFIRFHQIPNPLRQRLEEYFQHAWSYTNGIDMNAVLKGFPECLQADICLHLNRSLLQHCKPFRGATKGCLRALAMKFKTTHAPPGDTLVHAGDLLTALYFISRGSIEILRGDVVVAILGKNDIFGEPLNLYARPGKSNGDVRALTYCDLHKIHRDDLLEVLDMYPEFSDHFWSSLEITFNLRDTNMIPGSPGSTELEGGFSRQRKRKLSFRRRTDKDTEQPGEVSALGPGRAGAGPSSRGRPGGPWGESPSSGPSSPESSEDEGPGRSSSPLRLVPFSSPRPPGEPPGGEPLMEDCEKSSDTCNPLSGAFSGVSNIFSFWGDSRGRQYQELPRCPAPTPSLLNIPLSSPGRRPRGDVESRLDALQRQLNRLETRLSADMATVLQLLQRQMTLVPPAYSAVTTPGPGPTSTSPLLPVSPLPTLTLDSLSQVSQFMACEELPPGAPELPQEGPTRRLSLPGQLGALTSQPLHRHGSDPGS
Procedure for guinea pig hearts: Guinea pig studies were performed with the objective of determining the potential effects of escalating concentrations conjugates. Measurements for all physiological parameters (PQ, QRS, RR, QT, dLVP/dtmax, dLVP/dtmin) were made manually using EMKA ECG Auto software (QTc [Fridericia^2] was calculated) from intervals of beats manifesting sinus rhythm. Means for all animals receiving the test article were calculated for all concentrations. Plots of mean values for all animals plus the negative control animals were made for all parameters versus concentration. Plots of the positive control were made for all parameters versus concentration. Plots of values of all parameters minus the values for vehicle were made with baseline adjustment.

`COCCOCCOCCOCCOCCOCCOCCN(C)CCOC(c1ccccc1)c1ccccc1` [mPEG(7)-N-Diphenhydramine, mPEG7-N-diphenhydramine]: the IC50 fold lower in series [1] is on record as 4 fold. Also, the AUC(0-inf) in series [2] (IV, 1 mg/kg DPH-equivalent) was 410 ng·h/mL; in series [2] (oral, 5 mg/kg DPH-equivalent) it was 26.6 ng·h/mL. Further, the clearance in [2] (IV, 1 mg/kg DPH-equivalent) was 78.4 mL/min/kg. The Cmax in [2] (IV, 1 mg/kg DPH-equivalent) stood at 882 ng/mL; in series [2] (oral, 5 mg/kg DPH-equivalent), 41.3 ng/mL. The half-life in series [2] (IV, 1 mg/kg DPH-equivalent) was 25.8 min; in series [2] (oral, 5 mg/kg DPH-equivalent), 28.2 min; in the series “in vitro”, 88.4 min. Further, the Vd in series [2] (IV, 1 mg/kg DPH-equivalent, read-out: Vss) came to 2.07 L/kg. The bioavailability in [2] (oral 5 mg/kg vs IV 1 mg/kg, read-out: F (oral bioavailability)) worked out at 1.3%. The Tmax in series [2] (oral, 5 mg/kg DPH-equivalent, read-out: Tmax) turned out to be 15 min. For the same compound, the results for the IC50 (in series [3]; on Histamine (H1)) were 13000 nM and 1730 nM, respectively. The “antihistamine efficacy (wheal size)” value in [4] was “no efficacy in concentration range tested”. The Fold vs parent in series [5] was 20.1 and 28.7. Moreover, the Ki in [5] (Ki) is 605 nM and 454 nM. For the same compound, the “Fold change (vs DPH)” value in [6] (brain concentration, adjusted for DPH molar dose twice that of conjugates) is recorded as 26. In addition, the Kp at 1 h in [6] (rat, brain and plasma, intravenous) fell in the range of 0.2 to 1. For the same compound, the concentration at 1 h in series [6] (rat, brain, intravenous) was 106 ± 27.1 ng/g; in series [6] (rat, plasma, intravenous) it was 545 ± 57.9 ng/mL.
As to `C=C[C@H]1C[N@@]2CC[C@H]1C[C@@H]2[C@@H](O)c1ccnc2ccc(OC)cc12` [quinidine], the QT entry in the series on guinea pig hearts is “lengthened dramatically”.
